Tests used:
hMSCs [1] = assay: Competitive binding assay: adhesion of hMSCs pre-treated with soluble peptides to a surface with the bone marrow peptide cocktail; format: cell-based, human; conditions: 30 minutes pretreatment; glass surface with bone marrow integrin-binding peptide cocktail; three donor hMSCs and hTERT MSCs; 2 hours
Description: Cells were seeded at 4000 cells per cm^2 in their normal growth medium after 30 minutes of pretreatment with individual peptides or the complete bone marrow cocktail. Bone marrow was dosed at a molar amount of […] of medium and the molar amount dosed for each peptide was as follows: GRGDSPCG (SEQ ID NO:8)at 600 pmol/mL, CGPHSRNGGGGGGRGDS (SEQ ID NO:14), and […] (SEQ ID NO:18) at 220 pmol/mL, CGP(GPP)5GFOGER(GPP)5 (SEQ ID NO:15), CGGSVVYGLR (SEQ ID NO:13), and GPRGGC (SEQ ID NO:2)at 160 pmol/mL, CSVTCG (SEQ ID NO:4) and […] (SEQ ID NO:5) at 100 pmol/mL, GCGDGEA (SEQ ID NO:1), CSRARKQAASIKVAVADR (SEQ ID NO:3), GCKQLREQ (SEQ ID NO:6), and CGGAEIDGIEL (SEQ ID NO:16) at 60 pmol/mL, and GCDPGYIGSR (SEQ ID NO:7) at 40 pmol/mL. Cells were imaged cells beginning 10 minutes after seeding in an environment controlled Zeiss Axio Observer Z1 microscope (Carl Zeiss) using an AxioCam MRm camera and an EC Plan-Neofluar 20× 0.4 NA air objective. Images were taken using Zen (Carl Zeiss) at five-minute intervals for 2 hours and cell areas were traced in ImageJ (National Institutes of Health).

hMSCs [2] = assay: Outgrowth of hMSCs on beads in hydrogels made with a single MMP degradable crosslinker; format: cell-based, human; conditions: versus control, non-degradable crosslinker
Description: (§1) Cytodex1 microcarrier beads (Sigma) were swollen in sterile IX PBS (1 g beads/50 mL PBS) and autoclaved for 30 minute at 121° C. Flasks were coated with poly (2-hydroxyethy methacrylate) suspended in ethanol at 20 mg/mL and allowed to evaporate in a biosafety cabinet for 1 hour to make they non-adherent. hMSCs were seeded at 10-50 cells/bead in non-adherent flasks at a 0.1 mL of beads/mL of media. The flask was shaken every 1 hour for 4 hours to ensure coating unto beads. Cells were allowed to grow on beads for 72 hours before seeding into hydrogels. Breast cancer cells were suspended in 4° C., poly(N-isopropylacryamide)-poly(ethylene glycol) (pNIPAAM-PEG, Cosmo Bio) reconstituted in cell culture medium at a density of 167,000 cells/mL of MDA-MB-231s. Gelation occurred after 5 min at 37° C., and gels were swollen in cell culture medium and grown into spheroids for 14 days. pNIPAAm gels were dissolved in cold serum-free DMEM (1% pen/strep) and spheroids transferred to conical tubes placed in ice so that spheroids would settle to the bottom. The supernatant was removed and the spheroids were re-suspended in PEG-maleimide solution. A ratio of 9 3D hydrogels were made for every 150 μL of pNIPAAM-PEG. Hydrogels were prepared with 4-arm PEG-maleimide at a 20 wt % cross-linked at a 1:1 molar ratio with 50% 1.5 K linear PEG-dithiol and 50% of each individual MMP degradable peptide sequence (FIGS. 13A-13C). Gels were imaged at days 1 and 3 and all image analysis was performed in ImageJ (National Institutes of Health).

MDA-MB-231 cells = assay: MDA-MB-231 spheroid growth in hydrogels with one MMP degradable crosslinker; format: cell-based, human; conditions: spheroid size ratio
Description: as §1, with “Gels were imaged at days 1 and 3 and all image analysis was performed in ImageJ (National Institutes of Health).” left out

myofibroblasts = conditions: cited from earlier work
chick arotic cells = conditions: cited from earlier work

Substance | cell adhesion (cell area) after pre-treatment with soluble peptide (hMSCs [1]) | hMSC cell branching into hydrogel (maximum branch length per bead) (hMSCs [2]) | degradation of crosslinked gel by MDA-MB-231 spheroids (MDA-MB-231 cells) | ability of MMP peptide to degrade (myofibroblasts) | ability of MMP peptide to degrade (chick arotic cells)
CGGAEIDGIEL [tenascin C] | not significantly bound |  |  |  | 
CGP(GPP)5GFOGER(GPP)5 (CGPGPPGPPGPPGPPGPPGFGERGPPGPPGPPGPPGPP) [collagen I] | not significantly bound |  |  |  | 
GCRDGPLGLWARDRCG [MMP-13 crosslinker, di-functional MMP degradable crosslinker peptide designed for MMP 13 (Collagenase-3)] |  | No significant hMSC cell branching | degradation in the MMP-13 crosslinked gel was observed |  | 
GCRDRPFSMIMGDRCG [MMP-3 crosslinker, di-functional MMP degradable crosslinker peptide designed for MMP 3 (Stromelysin-1)] |  | No significant hMSC cell branching | again not with the MMP 2 and 3 peptides | ability for these MMP peptides to degrade has been shown | 
GCRDSGESPAYYTADRCG [MMP-2 crosslinker, di-functional MMP degradable crosslinker peptide designed for MMP 2 (Gelatinase A)] |  | No significant hMSC cell branching | again not with the MMP 2 and 3 peptides |  | ability for these MMP peptides to degrade has been shown
